In patent publication US7351688B2, “Compositions and methods for less immunogenic protein formulations” (The Research Foundation of State University of New York, priority 2003, dated 2008):

Test system: Hemophilia A mice
Test: Immunogenicity of simple complexes, subcutaneous: total antibody titers (ELISA) and inhibitory titers (Bethesda Units)
Conditions: mouse, in vivo, sc
Description: To illustrate this example, simple complexes were prepared with phosphoserine, phosphocholine or phaphatidic acid. Immunogenicity was tested by subcutaneous administration of the complexes in Hemophilia A mice.

- effect on immunogenicity (total antibody titers and inhibitory titers) versus rFVIII: not
Substance: phosphatidic acid
